Source: PubChem BioAssay (NCI)
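Briefly, cells in 96-well plates were exposed to five compound concentrations for 48 h, and endpoints were estimated by linear interpolation. Abbreviation: GI50, concentration required for 50% inhibition of growth. TGI denotes the concentration required for complete inhibition of growth.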

Experiments:
Assay in all cases: NCI anticancer screen, dose series, 48 h
786-0 renal = tested on: 786-0 renal
A498 renal = tested on: A498 renal
A549 NSCLC = tested on: A549 NSCLC
ACHN renal = tested on: ACHN renal
BT-549 breast = tested on: BT-549 breast
CAKI-1 renal = tested on: CAKI-1 renal
CCRF-CEM leukemia = tested on: CCRF-CEM leukemia
COLO 205 colon = tested on: COLO 205 colon
DU-145 prostate = tested on: DU-145 prostate
EKVX NSCLC = tested on: EKVX NSCLC
HCC-2998 colon = tested on: HCC-2998 colon
HCT-116 colon = tested on: HCT-116 colon
HCT-15 colon = tested on: HCT-15 colon
HL-60(TB) leukemia = tested on: HL-60(TB) leukemia
HOP-62 NSCLC = tested on: HOP-62 NSCLC
HOP-92 NSCLC = tested on: HOP-92 NSCLC
HS 578T breast = tested on: HS 578T breast
HT29 colon = tested on: HT29 colon
IGROV1 ovarian = tested on: IGROV1 ovarian
K-562 leukemia = tested on: K-562 leukemia
KM12 colon = tested on: KM12 colon
LOX IMVI melanoma = tested on: LOX IMVI melanoma
M14 melanoma = tested on: M14 melanoma
MALME-3M melanoma = tested on: MALME-3M melanoma
MCF7 breast = tested on: MCF7 breast
MDA-MB-231 breast = tested on: MDA-MB-231 breast
MDA-MB-435 = tested on: MDA-MB-435
MOLT-4 leukemia = tested on: MOLT-4 leukemia
NCI-H226 lung = tested on: NCI-H226 lung
NCI-H23 lung = tested on: NCI-H23 lung
NCI-H460 lung = tested on: NCI-H460 lung
NCI-H522 lung = tested on: NCI-H522 lung
NCI/ADR-RES ovarian = tested on: NCI/ADR-RES ovarian
OVCAR-3 ovarian = tested on: OVCAR-3 ovarian
OVCAR-4 ovarian = tested on: OVCAR-4 ovarian
OVCAR-5 ovarian = tested on: OVCAR-5 ovarian
OVCAR-8 ovarian = tested on: OVCAR-8 ovarian
PC-3 prostate = tested on: PC-3 prostate
RPMI-8226 leukemia = tested on: RPMI-8226 leukemia
RXF 393 renal = tested on: RXF 393 renal
SF-268 CNS = tested on: SF-268 CNS
SF-295 CNS = tested on: SF-295 CNS
SF-539 CNS = tested on: SF-539 CNS
SK-MEL-2 melanoma = tested on: SK-MEL-2 melanoma
SK-MEL-28 melanoma = tested on: SK-MEL-28 melanoma
SK-MEL-5 melanoma = tested on: SK-MEL-5 melanoma
SK-OV-3 ovarian = tested on: SK-OV-3 ovarian
SN12C renal = tested on: SN12C renal
SNB-19 CNS = tested on: SNB-19 CNS
SNB-75 CNS = tested on: SNB-75 CNS
SR leukemia = tested on: SR leukemia
SW-620 colon = tested on: SW-620 colon
T-47D breast = tested on: T-47D breast
TK-10 renal = tested on: TK-10 renal
U251 CNS = tested on: U251 CNS
UACC-257 melanoma = tested on: UACC-257 melanoma
UACC-62 melanoma = tested on: UACC-62 melanoma
UO-31 renal = tested on: UO-31 renal

COc1cccc(/C=N\NC(=O)c2ccncc2)c1O
GI50 (786-0 renal): 3.53 µM | TGI (786-0 renal): 30.6 µM | GI50 (A498 renal): 51.1 µM | TGI (A498 renal): > 100 µM | GI50 (A549 NSCLC): 11 µM | TGI (A549 NSCLC): > 100 µM | GI50 (ACHN renal): 2.96 µM | TGI (ACHN renal): > 100 µM | GI50 (BT-549 breast): 4.48 µM | TGI (BT-549 breast): 68.3 µM | GI50 (CAKI-1 renal): 1.88 µM | TGI (CAKI-1 renal): 17.6 µM | GI50 (CCRF-CEM leukemia): 1.86 µM | TGI (CCRF-CEM leukemia): > 100 µM | GI50 (COLO 205 colon): 4.9 µM | TGI (COLO 205 colon): > 100 µM | GI50 (DU-145 prostate): 5.13 µM | TGI (DU-145 prostate): > 100 µM | GI50 (EKVX NSCLC): 6.78 µM | TGI (EKVX NSCLC): > 100 µM | GI50 (HCC-2998 colon): 4.73 µM | TGI (HCC-2998 colon): > 100 µM | GI50 (HCT-116 colon): 3.47 µM | TGI (HCT-116 colon): > 100 µM | GI50 (HCT-15 colon): 2.87 µM | TGI (HCT-15 colon): > 100 µM | GI50 (HL-60(TB) leukemia): 2.27 µM | TGI (HL-60(TB) leukemia): 8.73 µM | GI50 (HOP-62 NSCLC): 5.36 µM | TGI (HOP-62 NSCLC): > 100 µM | GI50 (HOP-92 NSCLC): 3.16 µM | TGI (HOP-92 NSCLC): > 100 µM | GI50 (HS 578T breast): > 100 µM | TGI (HS 578T breast): > 100 µM | GI50 (HT29 colon): 21.5 µM | TGI (HT29 colon): > 100 µM | GI50 (IGROV1 ovarian): 6.98 µM | TGI (IGROV1 ovarian): > 100 µM | GI50 (K-562 leukemia): 13.7 µM | TGI (K-562 leukemia): > 100 µM | GI50 (KM12 colon): 6.06 µM | TGI (KM12 colon): > 100 µM | GI50 (LOX IMVI melanoma): 2.2 µM | TGI (LOX IMVI melanoma): > 100 µM | GI50 (M14 melanoma): 4.68 µM | TGI (M14 melanoma): > 100 µM | GI50 (MALME-3M melanoma): 6.62 µM | TGI (MALME-3M melanoma): 88.3 µM | GI50 (MCF7 breast): 6.27 µM | TGI (MCF7 breast): > 100 µM | GI50 (MDA-MB-231 breast): 7.61 µM | TGI (MDA-MB-231 breast): > 100 µM | GI50 (MDA-MB-435): 19.2 µM | TGI (MDA-MB-435): > 100 µM | GI50 (MOLT-4 leukemia): 3.04 µM | TGI (MOLT-4 leukemia): > 100 µM | GI50 (NCI-H226 lung): 10.4 µM | TGI (NCI-H226 lung): > 100 µM | GI50 (NCI-H23 lung): 5.28 µM | TGI (NCI-H23 lung): > 100 µM | GI50 (NCI-H460 lung): 3.63 µM | TGI (NCI-H460 lung): > 100 µM | GI50 (NCI-H522 lung): 3.24 µM | TGI (NCI-H522 lung): > 100 µM | GI50 (NCI/ADR-RES ovarian): 2.84 µM | TGI (NCI/ADR-RES ovarian): > 100 µM | GI50 (OVCAR-3 ovarian): 4.61 µM | TGI (OVCAR-3 ovarian): > 100 µM | GI50 (OVCAR-4 ovarian): 2.43 µM | TGI (OVCAR-4 ovarian): > 100 µM | GI50 (OVCAR-5 ovarian): 12.9 µM | TGI (OVCAR-5 ovarian): > 100 µM | GI50 (OVCAR-8 ovarian): 4.54 µM | TGI (OVCAR-8 ovarian): > 100 µM | GI50 (PC-3 prostate): 8.01 µM | TGI (PC-3 prostate): > 100 µM | GI50 (RPMI-8226 leukemia): 5.48 µM | TGI (RPMI-8226 leukemia): > 100 µM | GI50 (RXF 393 renal): 5.49 µM | TGI (RXF 393 renal): > 100 µM | GI50 (SF-268 CNS): 3.47 µM | TGI (SF-268 CNS): > 100 µM | GI50 (SF-295 CNS): 3.35 µM | TGI (SF-295 CNS): 71.2 µM | GI50 (SF-539 CNS): 6.07 µM | TGI (SF-539 CNS): > 100 µM | GI50 (SK-MEL-2 melanoma): 53.2 µM | TGI (SK-MEL-2 melanoma): > 100 µM | GI50 (SK-MEL-28 melanoma): 19.1 µM | TGI (SK-MEL-28 melanoma): > 100 µM | GI50 (SK-MEL-5 melanoma): 6.29 µM | TGI (SK-MEL-5 melanoma): 29 µM | GI50 (SK-OV-3 ovarian): 6.45 µM | TGI (SK-OV-3 ovarian): > 100 µM | GI50 (SN12C renal): 8.41 µM | TGI (SN12C renal): > 100 µM | GI50 (SNB-19 CNS): 6.72 µM | TGI (SNB-19 CNS): > 100 µM | GI50 (SNB-75 CNS): 47.6 µM | TGI (SNB-75 CNS): > 100 µM | GI50 (SR leukemia): 2.98 µM | TGI (SR leukemia): > 100 µM | GI50 (SW-620 colon): 7.48 µM | TGI (SW-620 colon): > 100 µM | GI50 (T-47D breast): 3.46 µM | TGI (T-47D breast): > 100 µM | GI50 (TK-10 renal): 4.78 µM | TGI (TK-10 renal): > 100 µM | GI50 (U251 CNS): 2.95 µM | TGI (U251 CNS): > 100 µM | GI50 (UACC-257 melanoma): 5 µM | TGI (UACC-257 melanoma): > 100 µM | GI50 (UACC-62 melanoma): 3.62 µM | TGI (UACC-62 melanoma): 34.6 µM | GI50 (UO-31 renal): 2.36 µM | TGI (UO-31 renal): 56.8 µM
